# From patent US20260240820A1, “METHOD FOR CONTROLLING MEMBRANE POTENTIAL-DEPENDENT ION CHANNEL THROUGH TYPE I TASTE RECEPTORS (T1RS)” (ION CHAT RESEARCH CORPORATE, priority 2022, published 2026)
# Several values for one entry are separate records, joined by “and”; a condition that tells them apart may be missing. Identical values can stand only once. Entries after “also recorded” stand apart in the source; their conditions may differ. Like-named read-outs stand apart in the source and are kept apart here.
# Experiments:
# VGSC = assay: Patch-clamp recording of VGSC current, cell type not specified or several cell types (summary statements); format: cell-based, human; conditions: for IC50: read-out: IC50 for inhibition of VGSC; for Enhancement of VGSC current at high(er) concentration: high concentration (desensitization)
# SH-SY5Y cells [1] = assay: Cell morphology observation, SH-SY5Y cells; format: cell-based, human; conditions: 120 μM; undifferentiated SH-SY5Y cells
# Nav1.6 [2] = assay: Patch-clamp recording of VGSC current in HEK (Nav1.6) cells; format: cell-based, human
# Nav1.5 = assay: Patch-clamp (voltage clamp) recording of VGSC current in HEK cells stably expressing Nav1.5; conditions: for IC50: read-out: IC50 (VGSC inhibition)
# Nav1.6 [3] = assay: Patch-clamp recording of VGSC current in HEK (Nav1.6) cells; format: cell-based, human; remark: listed apart in the source
# Excerpt: The cells used in the previous (18-1) experiment were cardiac-type VGSC cells. In this experiment, HEK (Nav1.1) and HEK (Nav1.6) cells, which are considered neuronal VGSC cells, were created. The effects of four peptides—Aβ25-35, Aβ1-38, Aβ1-40, and Aβ1-42—were examined using the same experimental protocol as in (18-1). […]
# Nav1.1 = assay: Patch-clamp recording of VGSC current in HEK (Nav1.1) cells; format: cell-based, human
# Excerpt: The cells used in the previous (18-1) experiment were cardiac-type VGSC cells. In this experiment, HEK (Nav1.1) and HEK (Nav1.6) cells, which are considered neuronal VGSC cells, were created. The effects of four peptides—Aβ25-35, Aβ1-38, Aβ1-40, and Aβ1-42—were examined using the same experimental protocol as in (18-1).
# Kv1.2 = assay: Patch-clamp recording of Kv1.2 potassium current in HEK cells expressing Kv1.2; format: cell-based, human
# Description: The effects of Aβ peptides or umami substances on sustained potassium currents (VGKC) in cardiac myocytes can be studied using HEK cells expressing VGKC (such as Kv1.2, Kv3.2, Kv3.3) as well as SH-SY5Y cells expressing endogenous T1R GPCRs. For instance, as shown in the implementation example in (FIG. 36B), Aβ peptides were applied to VGKC-expressing human cultured cells, and VGKC currents were recorded using ramp-like or rectangular voltage waveforms via the patch-clamp technique. This allowed measurement of the changes (inhibition) in VGKC currents caused by Aβ peptides. Similar inhibition studies on VGKC can be conducted using umami substance L-glutamate sodium (MSG) (FIG. 36A).
# As shown in (FIG. 37), Aβ1-42 peptide, unlike Aβ25-35 targeting T1R3, interacts with T1R1 and inhibits VGSC currents (FIGS. 37D, E).
# [4] = system: Nav1.5 in T1R3-silenced HEK cells; assay: VGSC current in HEK Nav1.5 cells with silenced T1R3; format: cell-based, human
# Excerpt: The miRNAs Oligo (Thermofisher) used for silencing were annealed to form double-stranded DNA, which was then linked to the miR RNAi Expression Vector using T4 DNA ligase to create the knockdown vector. Specifically, the procedure followed the miR RNAi Expression Vector Kit manual (BLOCK-i™ Pol II miR RNAi Expression Vector Kit with EmGFP (Catalog number: K493600)).
# Since Aβ25-35 peptide produced similar effects (enhancing VGSC activity, lowering the excitability threshold) as glutamine, it was considered that Aβ25-35 peptide might also act on T1R2/T1R3 receptors like glutamine. Therefore, in this implementation example, we used HEK-Nav1.5 cells with silenced T1R3 and compared the effect of Aβ25-35 peptide on VGSC with that in control HEK-Nav1.5 cells.
# To strengthen these findings, we conducted similar experiments using HEK Nav1.5 cells in which T1R3 expression was silenced (FIG. 22). We measured VGSC currents in T1R3-silenced HEK Nav1.5 cells, applying stimuli every 8 seconds.
# Cav1.2 = assay: Intracellular calcium measurement in HEK cells stably expressing Cav1.2 after KCl depolarisation; format: cell-based, human; conditions: 12.5 nM
# Description: Specifically, experiments were conducted using a method to measure intracellular calcium concentration in HEK cells stably expressing Cav1.2. […] High concentrations of KCl depolarize the cell membrane potential by depolarizing the potassium equilibrium potential from the resting potential, activating voltage-gated calcium channels (VGCC, Cav1.2) that are activated by depolarization, and allowing extracellular calcium to flow into the cell through these calcium channels. (FIG. 47A) measures the activation process of intracellular calcium increase caused by the activation of these VGCCs.
# The calcium response to high concentrations of potassium decays with a certain regularity, so the process was approximated using the Hyperbolic Decline formula
# and the difference between the curve obtained (dashed line in FIG. 47A) and the experimental values was calculated to derive the enhancement of intracellular calcium by Aβ1-42 peptide.
# [5] = system: endogenous T1R GPCR of HEK cells; assay: Intracellular calcium (Cal-520) in HEK cells stably expressing Nav1.1 with endogenous T1R GPCR; format: cell-based, human; conditions: 10 nM then 20 nM for Aβ1-40 and Aβ1-42
# Description: Specifically, experiments were conducted as follows using HEK cells stably expressing Nav1.1 (FIG. 45). The calcium-sensitive reagent (Cal-520, AAT Bioquest) was incubated at 37° C. for 60 minutes, followed by incubation at room temperature for 30 minutes, and then changes in intracellular calcium were measured using a fluorescence microscope. […] Initially, 10 nM, followed by 20 nM of Aβ1-40 was applied after 5 minutes (arrow). […] A total of 6 cell groups from two independent experiments were measured, averaged by the maximum fluorescence response value, and the mean and standard error (stderr) were calculated and plotted. […] 10 nM, followed by 20 nM of Aβ1-42 was applied after 5 minutes (arrow). […] A total of 12 cell groups from two independent experiments were measured, averaged by the minimum fluorescence response value, and the mean and standard error (stderr) were calculated and plotted. Similar to the experimental results using the patch-clamp method when Aβ peptide was applied to Nav1.5, it was confirmed from intracellular calcium measurements that the effects of Aβ1-40 and Aβ1-42 were different.
# HEK Nav1.5 cells = assay: GFP-Tubulin / GFP-Actin cytoskeleton observation in HEK Nav1.5 cells; format: cell-based, human
# Excerpt: To observe the impact of cinacalcet and Aβ1-42 peptide on microfilament (actin) fiber structures, we labeled cells with GFP-Actin (FIG. 34). […] This experimental approach, using GFP-Tubulin, GFP-Actin, or other fluorescent proteins to label microtubules and microfilaments, can be used to screen compounds that regulate the activity of ion channels and neuronal function-controlling proteins. Additionally, simultaneous labeling of tubulin and actin can be achieved using fluorescent antibodies or phalloidin after cell fixation.
# [6] = system: VGSC of SH-SY5Y cells (Nav1.7, Nav1.2, Nav1.3); assay: Patch-clamp recording of VGSC current in differentiated SH-SY5Y cells; format: cell-based, human; conditions: 1-6 μM (2 μM in FIG. 4); listed as Aβ25-35 peptide
# Excerpt: Furthermore, the inventors focused on the relationship between taste receptors, particularly the sweet or umami receptors containing the T1R3 subunit, which are widely expressed in the brain and nervous system, including the hippocampus and cortex. They used human neuroblastoma cells (SH-SY5Y) that functionally express Nav1.2, Nav1.3, and Nav1.7 (as reported in non-patent literature 8), as well as HEK cells stably expressing Nav1.5 (with endogenous expression of T1R1, T1R2, and T1R3). They observed the effects of taste stimuli on sodium channel activation. By reducing the expression of T1R1 and T1R3 genes using silencing vectors, they confirmed that the effects on sodium channel currents induced by taste stimuli act through taste receptor GPCRs.
# The SH-SY5Y cell culture medium was prepared by mixing DMEM (Sigma-Aldrich) and F-12 (Sigma-Aldrich) in equal proportions. To induce neuronal-like differentiation, the medium contained 1% FBS (BioWest), 5% 40 mM L-Glutamine (Fuji Film), and 1% MEM non-essential amino acids (Wako Pure Chemical Industries). During differentiation, SH-SY5Y cells were cultured for at least 5 days with the addition of 10 μM/ml retinoic acid (Fuji Film). In this document, “SH-SY5Y cells” refer to the SH-SY5Y cell line differentiated into neuronal-like cells.
# SH-SY5Y cells [7] = assay: Action potentials of differentiated SH-SY5Y cells (current clamp, NanoCharge method); format: cell-based, human; conditions: listed as Aβ25-35 peptide
# Description: Next, using the current-clamp mode, we applied current stimulation and recorded action potentials from differentiated SH-SY5Y cells (FIG. 5, from the lower to the upper part of the figure, rectangular wave current stimulation was applied. The current strengths were 6, 8, 10, and 12 pA from the bottom). Before the application of Aβ25-35 peptide, action potentials were not induced at stimulation currents of 6 pA and 8 pA, but action potentials were recorded at stronger stimulation currents (10 pA and 12 pA).
# By using magnetic conductive nanoparticles as intracellular electrodes for measuring the neuronal action potentials of differentiated SH-SY5Y cells, and combining this with a capacitive potential detection device to measure changes in intracellular potentials, the spontaneous action potentials of these cells were measured. Specifically, 6.25 nM of the T1R3 agonist Aβ25-35 peptide was added to 400 μl of SH-SY5Y cell culture medium, and the spontaneous action potentials before and after the addition of Aβ25-35 peptide were measured to observe the changes.
# This membrane potential recording method focuses on the magnetic conductive nanoparticles penetrating the cell membrane, the cover glass on which the cells are seeded, and the electrode placed below the cover glass forming a capacitor. The charge (Q) charged to this capacitor is recorded as the membrane potential in terms of charge rather than voltage changes. Since the charge (Q) is obtained from Q=CV, where C is the capacitance and V is the potential, the charge changes measured here are influenced by the capacitor (C) (FIG. 43).
substance,measurement,setting,value
Aspartame,Effects on VGSCs,VGSC,Inhibition of VGSCs
same,Inhibition of VGSC,VGSC; 50 μM,> 90%. Inhibition is due to a parallel shift
same,IC50,VGSC; listed as aspartame,15 to 17 µM and < 17 µM
same,IC50,VGSC,< 50 µM
same,Change in cell morphology,SH-SY5Y cells [1],contracted cell morphology; also recorded: cell contraction
same,IC50,"Nav1.6 [2]; HEK Nav1.6, prepulse −80 mV, read-out: IC50 (VGSC inhibition)",17 µM
same,IC50,Nav1.5; prepulse −70 mV,15.3 µM
same,IC50,Nav1.5; prepulse −100 mV,49.7 µM
"Aβ1-42: amyloid β peptide, Sequence No. 4",Effect on VGSC current,Nav1.6 [3],enhancement of VGSC was observed
same,Effect on VGSC current,Nav1.1,enhancement of VGSC was observed
same,Effect on VGSC inactivation,VGSC,delays the inactivation
same,Effects on VGSCs,VGSC,Delay in VGSC inactivation
same,Effect on voltage gated K+ channel (Kv1.2) current,Kv1.2,reduced Kv1.2 potassium current; also recorded: concentration-dependently inhibits Kv1.2 potassium currents
same,Effect on voltage gated K+ channel (Kv1.2) current,Kv1.2; listed as Aβ42 peptide,Inhibition of Voltage gated
same,Effect on VGSC in T1R3-silenced cells,[4],is lost
same,Intracellular calcium after KCl-induced Cav1.2 activation,Cav1.2,further increase in intracellular calcium
same,Enhancement of intracellular calcium relative to response to high concentrations of potassium,Cav1.2; n=3,about 11%
same,Change in intracellular calcium,[5],"biphasic response; also recorded: transiently decreased, slowly recovered, and then began to increase"
same,Microfilament structure (GFP-Actin),HEK Nav1.5 cells,condensed GFP-Actin structures
same,Effect on Nav1.6 VGSC current,Nav1.6 [2]; HEK cells expressing Nav1.6 and Kv1.2,amplified; also recorded: enhancing effect
same,Effect on VGSC current,Nav1.5; 12.5 nM and 25 nM,concentration-dependent reductions in VGSC current
same,Effect on Nav1.5 VGSC current,"Nav1.5; 12.5 nM, perforated patch-clamp with Gramicidin",enhanced; also recorded: enhancement effect
same,Shift of I-V plot peak in the hyperpolarizing direction,Nav1.5; 74 nM,5-10 mV
same,Effect on VGSC current,"Nav1.5; 74 nM, whole-cell voltage clamp, listed as Aβ1-42 peptide",decreasing trend; also recorded: suppressed sodium channel currents
GSNKGAIIGLM [Aβ25-35],Effect on VGSC inward current,[6],enhancement of transient downward VGSC current; also recorded: enhancement of VGSC inward current
same,Effect on VGSC current,Nav1.6 [3],VGSC enhancement
same,Effect on VGSC current,Nav1.1,VGSC enhancement
same,Effects on VGSCs,VGSC,Enhancement of VGSC
same,Effect on VGSC current in the presence of colchicine,"VGSC; 12.5 nM, colchicine 2.25 μM",inhibits Aβ25-35-induced enhancement; also recorded: no further enhancement of VGSC current was observed
same,Effect on VGSC current,VGSC; 125 nM to 2 μM,Ab25-35 (125 nM to 2 μM) enhances
same,Effect on VGSC current in the presence of Latrunculin A,"VGSC; 12.6 μM LatA, Aβ25-35 printed 12.5 μM",VGSC amplification; also recorded: doubled
same,Enhancement of VGSC current at high(er) concentration,VGSC,VGSC current but not at higher
same,Enhancement of VGSC current at high(er) concentration,VGSC; listed as Ab25-35,Ab25-35 is suppressed
same,Effect on VGSC in T1R3-silenced cells,[4],is lost
same,Change in VGSC,[4]; 2 μM,no change in VGSC was observed
same,Effect on VGSC in T1R3-silenced cells,[4]; listed as ab25-35,T1R3 silencing nullifies ab25-35's
same,Change in intracellular calcium,[5],an increase in intracellular calcium was observed
same,Microtubule fibrous structure (GFP-Tubulin),HEK Nav1.5 cells; MSG 5 mM,disappearance of microtubule-like structures
same,Frequency of spontaneous action potentials,"SH-SY5Y cells [7]; 6.25 nM, NanoCharge method",an increase in spontaneous action potential frequency; also recorded: an increase in the frequency of spontaneous action potentials
same,Excitability / action potential threshold,"SH-SY5Y cells [7]; current clamp, 6-12 pA stimulation",increased the excitability of SH-SY5Y cells; also recorded: threshold for generating action potentials was lowered
same,Cell membrane capacitance and VGSC current,"Nav1.5; 12.5 nM, perforated patch-clamp",increase in cell membrane capacitance and VGSC current
same,Cell membrane capacitance and VGSC currents,"Nav1.5; 120 nM, perforated patch-clamp",increased
same,Cell membrane capacitance and VGSC currents,"Nav1.5; 240 nM, perforated patch-clamp",decreased to control levels
same,Effect on VGSC current,"Nav1.5; 1 μM, control HEK Nav1.5 cells",enhancing effect; also recorded: enhancement effect
same,Increase in VGSC current amplitude,Nav1.5; control without anti-T1R3 antibody pre-treatment,10-20%
same,VGSC current density (pA/pF),"Nav1.5; low concentration, perforated patch-clamp",current density of VGSC increased
